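Results reflect a 48-hour exposure of cells in 96-well plates to compound at five concentrations. TGI denotes the concentration required for complete inhibition of growth.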
Tests used:
Test in all cases: NCI anticancer screen, dose series, 48 h
786-0 renal = test system: 786-0 renal
A498 renal = test system: A498 renal
A549 NSCLC = test system: A549 NSCLC
ACHN renal = test system: ACHN renal
CAKI-1 renal = test system: CAKI-1 renal
CCRF-CEM leukemia = test system: CCRF-CEM leukemia
COLO 205 colon = test system: COLO 205 colon
DLD-1 colon = test system: DLD-1 colon
DMS 114 small cell lung = test system: DMS 114 small cell lung
DMS 273 small cell lung = test system: DMS 273 small cell lung
EKVX NSCLC = test system: EKVX NSCLC
HCC-2998 colon = test system: HCC-2998 colon
HCT-116 colon = test system: HCT-116 colon
HCT-15 colon = test system: HCT-15 colon
HL-60(TB) leukemia = test system: HL-60(TB) leukemia
HOP-18 NSCLC = test system: HOP-18 NSCLC
HOP-62 NSCLC = test system: HOP-62 NSCLC
HOP-92 NSCLC = test system: HOP-92 NSCLC
HT29 colon = test system: HT29 colon
IGROV1 ovarian = test system: IGROV1 ovarian
K-562 leukemia = test system: K-562 leukemia
KM12 colon = test system: KM12 colon
KM20L2 colon = test system: KM20L2 colon
LOX IMVI melanoma = test system: LOX IMVI melanoma
LXFL 529 NSCLC = test system: LXFL 529 NSCLC
M14 melanoma = test system: M14 melanoma
M19-MEL melanoma = test system: M19-MEL melanoma
MALME-3M melanoma = test system: MALME-3M melanoma
MOLT-4 leukemia = test system: MOLT-4 leukemia
NCI-H226 lung = test system: NCI-H226 lung
NCI-H23 lung = test system: NCI-H23 lung
NCI-H460 lung = test system: NCI-H460 lung
NCI-H522 lung = test system: NCI-H522 lung
OVCAR-3 ovarian = test system: OVCAR-3 ovarian
OVCAR-4 ovarian = test system: OVCAR-4 ovarian
OVCAR-5 ovarian = test system: OVCAR-5 ovarian
OVCAR-8 ovarian = test system: OVCAR-8 ovarian
RPMI-8226 leukemia = test system: RPMI-8226 leukemia
RXF 393 renal = test system: RXF 393 renal
RXF-631 renal = test system: RXF-631 renal
SF-268 CNS = test system: SF-268 CNS
SF-295 CNS = test system: SF-295 CNS
SF-539 CNS = test system: SF-539 CNS
SK-MEL-2 melanoma = test system: SK-MEL-2 melanoma
SK-MEL-28 melanoma = test system: SK-MEL-28 melanoma
SK-MEL-5 melanoma = test system: SK-MEL-5 melanoma
SK-OV-3 ovarian = test system: SK-OV-3 ovarian
SN12C renal = test system: SN12C renal
SNB-19 CNS = test system: SNB-19 CNS
SNB-75 CNS = test system: SNB-75 CNS
SNB-78 CNS = test system: SNB-78 CNS
SR leukemia = test system: SR leukemia
SW-620 colon = test system: SW-620 colon
TK-10 renal = test system: TK-10 renal
U251 CNS = test system: U251 CNS
UACC-257 melanoma = test system: UACC-257 melanoma
UACC-62 melanoma = test system: UACC-62 melanoma
UO-31 renal = test system: UO-31 renal

Question: For `COC1C=CC(C(=O)[N+]2=Cc3[nH]c4ccccc4c3CC2)O1` (stereo not drawn), which TGI (786-0 renal) is on record?
Answer: The TGI was > 100 µM.

Question: What about the TGI (A498 renal) of the same compound?
Answer: Its TGI is > 100 µM.

Question: And the TGI (A549 NSCLC)?
Answer: The TGI was > 100 µM.

Question: And the TGI (ACHN renal)?
Answer: Its TGI is > 100 µM.

Question: What about the TGI (CAKI-1 renal) of the same compound?
Answer: The TGI was > 100 µM.

Question: What about the TGI (CCRF-CEM leukemia) of the same compound?
Answer: Its TGI is 76.6 µM.

Question: And the TGI (COLO 205 colon)?
Answer: The TGI was > 100 µM.

Question: And the TGI (DLD-1 colon)?
Answer: The TGI was > 100 µM.

Question: And the TGI (DMS 114 small cell lung)?
Answer: Its TGI is > 100 µM.

Question: What about the TGI (DMS 273 small cell lung) of the same compound?
Answer: Its TGI is > 100 µM.

Question: What about the TGI (EKVX NSCLC) of the same compound?
Answer: The TGI was > 100 µM.

Question: What about the TGI (HCC-2998 colon) of the same compound?
Answer: The TGI was > 100 µM.

Question: And the TGI (HCT-116 colon)?
Answer: The TGI was > 100 µM.

Question: And the TGI (HCT-15 colon)?
Answer: The TGI was > 100 µM.

Question: And the TGI (HL-60(TB) leukemia)?
Answer: Its TGI is > 100 µM.

Question: And the TGI (HOP-18 NSCLC)?
Answer: Its TGI is > 100 µM.

Question: And the TGI (HOP-62 NSCLC)?
Answer: Its TGI is > 100 µM.

Question: And the TGI (HOP-92 NSCLC)?
Answer: Its TGI is > 100 µM.

Question: What about the TGI (HT29 colon) of the same compound?
Answer: Its TGI is > 100 µM.

Question: What about the TGI (IGROV1 ovarian) of the same compound?
Answer: The TGI was > 100 µM.

Question: What about the TGI (K-562 leukemia) of the same compound?
Answer: The TGI was > 100 µM.

Question: What about the TGI (KM12 colon) of the same compound?
Answer: The TGI was > 100 µM.

Question: What about the TGI (KM20L2 colon) of the same compound?
Answer: Its TGI is > 100 µM.

Question: What about the TGI (LOX IMVI melanoma) of the same compound?
Answer: The TGI was > 100 µM.

Question: And the TGI (LXFL 529 NSCLC)?
Answer: Its TGI is > 100 µM.

Question: What about the TGI (M14 melanoma) of the same compound?
Answer: The TGI was > 100 µM.

Question: And the TGI (M19-MEL melanoma)?
Answer: The TGI was > 100 µM.

Question: What about the TGI (MALME-3M melanoma) of the same compound?
Answer: The TGI was > 100 µM.

Question: And the TGI (MOLT-4 leukemia)?
Answer: Its TGI is > 100 µM.

Question: What about the TGI (NCI-H226 lung) of the same compound?
Answer: Its TGI is > 100 µM.

Question: And the TGI (NCI-H23 lung)?
Answer: Its TGI is > 100 µM.

Question: What about the TGI (NCI-H460 lung) of the same compound?
Answer: The TGI was > 100 µM.

Question: What about the TGI (NCI-H522 lung) of the same compound?
Answer: The TGI was > 100 µM.

Question: And the TGI (OVCAR-3 ovarian)?
Answer: Its TGI is > 100 µM.

Question: And the TGI (OVCAR-4 ovarian)?
Answer: Its TGI is > 100 µM.

Question: And the TGI (OVCAR-5 ovarian)?
Answer: Its TGI is > 100 µM.

Question: And the TGI (OVCAR-8 ovarian)?
Answer: The TGI was > 100 µM.

Question: And the TGI (RPMI-8226 leukemia)?
Answer: The TGI was > 100 µM.

Question: What about the TGI (RXF 393 renal) of the same compound?
Answer: Its TGI is > 100 µM.

Question: And the TGI (RXF-631 renal)?
Answer: The TGI was > 100 µM.

Question: What about the TGI (SF-268 CNS) of the same compound?
Answer: The TGI was > 100 µM.

Question: What about the TGI (SF-295 CNS) of the same compound?
Answer: The TGI was > 100 µM.

Question: And the TGI (SF-539 CNS)?
Answer: Its TGI is > 100 µM.

Question: And the TGI (SK-MEL-2 melanoma)?
Answer: Its TGI is > 100 µM.

Question: And the TGI (SK-MEL-28 melanoma)?
Answer: Its TGI is > 100 µM.

Question: And the TGI (SK-MEL-5 melanoma)?
Answer: Its TGI is > 100 µM.

Question: What about the TGI (SK-OV-3 ovarian) of the same compound?
Answer: Its TGI is > 100 µM.

Question: And the TGI (SN12C renal)?
Answer: The TGI was > 100 µM.

Question: And the TGI (SNB-19 CNS)?
Answer: Its TGI is > 100 µM.

Question: And the TGI (SNB-75 CNS)?
Answer: The TGI was > 100 µM.

Question: And the TGI (SNB-78 CNS)?
Answer: The TGI was > 100 µM.

Question: What about the TGI (SR leukemia) of the same compound?
Answer: The TGI was 82.7 µM.

Question: What about the TGI (SW-620 colon) of the same compound?
Answer: The TGI was > 100 µM.

Question: And the TGI (TK-10 renal)?
Answer: Its TGI is > 100 µM.

Question: And the TGI (U251 CNS)?
Answer: Its TGI is > 100 µM.

Question: And the TGI (UACC-257 melanoma)?
Answer: Its TGI is > 100 µM.

Question: What about the TGI (UACC-62 melanoma) of the same compound?
Answer: The TGI was > 100 µM.

Question: And the TGI (UO-31 renal)?
Answer: Its TGI is > 100 µM.

Question: Which results are given for `Cc1c(C(=O)CC(=O)C(=O)Nc2ccc(Cl)c(Cl)c2)[n+](=O)c2ccccc2n1[O-]`?
Answer: TGI (786-0 renal): 69 µM; TGI (A498 renal): > 100 µM; TGI (A549 NSCLC): 69.3 µM; TGI (ACHN renal): > 100 µM; TGI (CAKI-1 renal): > 100 µM; TGI (CCRF-CEM leukemia): 43 µM; TGI (COLO 205 colon): 36.1 µM; TGI (DMS 114 small cell lung): 34.3 µM; TGI (DMS 273 small cell lung): 49.9 µM; TGI (EKVX NSCLC): 36.9 µM; TGI (HCC-2998 colon): 67.3 µM; TGI (HCT-116 colon): 35.4 µM; TGI (HCT-15 colon): 48.2 µM; TGI (HL-60(TB) leukemia): 47.4 µM; TGI (HOP-62 NSCLC): > 100 µM; TGI (HOP-92 NSCLC): > 100 µM; TGI (HT29 colon): 74.5 µM; TGI (IGROV1 ovarian): 50.8 µM; TGI (K-562 leukemia): 57.2 µM; TGI (KM12 colon): > 100 µM; TGI (KM20L2 colon): > 100 µM; TGI (LOX IMVI melanoma): 53.2 µM; TGI (LXFL 529 NSCLC): 32.4 µM; TGI (M14 melanoma): 36.5 µM; TGI (M19-MEL melanoma): 33.3 µM; TGI (MALME-3M melanoma): 36.5 µM; TGI (MOLT-4 leukemia): 44.5 µM; TGI (NCI-H226 lung): > 100 µM; TGI (NCI-H23 lung): 96 µM; TGI (NCI-H460 lung): 57.1 µM; TGI (NCI-H522 lung): 37 µM; TGI (OVCAR-3 ovarian): 7.91 µM; TGI (OVCAR-4 ovarian): 34.7 µM; TGI (OVCAR-5 ovarian): 86.4 µM; TGI (OVCAR-8 ovarian): 43.6 µM; TGI (RPMI-8226 leukemia): 45.7 µM; TGI (RXF 393 renal): 92.2 µM; TGI (RXF-631 renal): 60.3 µM; TGI (SF-268 CNS): 85.2 µM; TGI (SF-295 CNS): > 100 µM; TGI (SF-539 CNS): 57.5 µM; TGI (SK-MEL-2 melanoma): 57 µM; TGI (SK-MEL-28 melanoma): > 100 µM; TGI (SK-MEL-5 melanoma): 43.9 µM; TGI (SK-OV-3 ovarian): > 100 µM; TGI (SN12C renal): 55.4 µM; TGI (SNB-19 CNS): > 100 µM; TGI (SNB-75 CNS): 48.9 µM; TGI (SNB-78 CNS): > 100 µM; TGI (SW-620 colon): 71.8 µM; TGI (TK-10 renal): > 100 µM; TGI (U251 CNS): 72.3 µM; TGI (UACC-257 melanoma): 34.5 µM; TGI (UACC-62 melanoma): 32.7 µM; TGI (UO-31 renal): > 100 µM
